# Data as given in US20150376647A1, “DESIGNER PH SENSOR AS UNIVERSAL TRANSGENE CONTROLLER” (ETH ZURICH, priority 2013, published 2015).
# Tested on: protein kinase A (PKA)
# Test: PKA inhibition of pH sensor signaling in pDA62/pCK53-cotransfected HEK-293T
# Format: cell-based, human
# Conditions: 10 μM for 1 h, 2 h at pH 6.9, then pH 7.6, SEAP after 24 h
# Procedure: PKA inhibition: 1.5×10^5 cells were pretreated with 10 μM H-89 (Sigma, cat. no. B1472) for 1 h, incubated for 2 h in cell culture medium adjusted to pH 6.9 and maintained for 24 h in cell culture medium adjusted to pH 7.6 before SEAP levels were assessed in the cell culture supernatant
# SEAP: Production of human placental secreted alkaline phosphatase was quantified in cell culture supernatants (Schlatter S. et al., Gene 282, 19-31 (2002)) and mouse serum (Weber et. al., Nat. Biotech., 22, 1440-1444 (2004)) as described before.
compound,measurement,value
O=S(=O)(NCCNC/C=C/c1ccc(Br)cc1)c1cccc2cnccc12 [H-89],TDAG8-to-PCRE signaling (SEAP levels),interrupted
